Source: US9546157B2, “Asymmetric piperidinyl-substituted ureas as medicines” (Helsinn Healthcare SA, priority 2014, dated 2017)
“Also recorded” adds a separate entry of the source.

Columns and labels:
[1] = Metabolic Stability (D); type: in vitro ADME; settings: D (not defined)
[2] = Metabolic Stability (M = Mouse); type: in vitro ADME
[3] = target: T1, GHSR1a (Homo sapiens, UniProt Q92847); test: Calcium FLIPR assay, GHSR-1a agonism; type: cell-based; set-up: Emax: unit not given here; settings: HEK293/GHSR1a cells
T1 construct: expressed in transfected cells; host or cells: HEK293
Method in brief: (§1)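 Calcium dye-loaded HEK293/GHSR1a cells were monitored by FLIPR fluorescence for 2 min after additions at t=20 s. For antagonist mode, compound was co-added with ghrelin (10 nM) and scored by lowering the ghrelin signal. Agonist mode added compound alone; EC50 and IC50 came from dose-response data.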

[4] = tested on: C57BL/6J mice; test: Food intake test in mouse (GHSR1a antagonists); type: in vivo; settings: for inhibition in vivo at 10 mg/kg: Mus musculus, ip, 1 h, i.p. 10 mg/kg
Method in brief: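 Male C57BL/6J mice (18-22 g) were fasted overnight (16 h before dosing), then randomized by body weight to vehicle or test agent (n=6 each). Cumulative food intake was measured at 1, 2, 4, 8 and 24 hrs post-dose as premeasured food minus uneaten food.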

[5] = Metabolic Stability (R); type: in vitro ADME; settings: R (not defined)
[6] = Metabolic Stability (H = Human); type: in vitro ADME
[7] = target: T1, GHSR1a; test: Calcium FLIPR assay, GHSR-1a antagonism (reduction of ghrelin response); type: cell-based; settings: HEK293/GHSR1a cells, ghrelin 10 nM
Method in brief: as §1

[8] = tested on: rat; test: Food intake in rat (PO, with or without ANA); type: in vivo
[9] = tested on: female Sprague-Dawley rats; test: Binge eating model in non-estrous female rats (food restriction + stress, HPF intake); type: in vivo, rat; settings: for HPF intake (binge eating) in R+S rats: 60 mg/kg by gavage 1 h before access to HPF
Description: In this Example, the therapeutic potential of compounds were tested for their ability to inhibit binge eating. The animal model used was developed to explore the combination of food restriction and stress. […] Considering the reliability and the robustness of this model, it was adopted to test the inventive compounds.
A total of N=117, 52-day-old female Sprague-Dawley rats (175-200 g) were used. Rats were acclimated in individual cages with metallic walls; the floor and the front wall made of metallic grid. The dimensions of the cage floor being 30 cm×30 cm; the cage is 30 cm high. A front door (30 cm×20 cm) made of metallic grid was positioned in the anterior wall of the cage to gain access to the inside of the cage; the remaining part of the front wall was equipped with a drinking burette.
Rats were kept in a room at constant temperature (20-22° C.) and humidity (45-55%) under a 12-h light/dark cycle (lights on at 08:00 am) with ad lib chow and water. All procedures were conducted in adherence to the European Community Directive for Care and Use of Laboratory Animals.
Rats were offered food pellets, 4RF18, Mucedola, Settimo Milanese, Italy (2.6 kcal/g). The Highly Palatable Food (HPF) was prepared by mixing:
Rats were exposed to 3 consecutive 8-day cycles followed by the final test on day 25:
a) the control group (NR+NS) had chow ad libitum for 4 days, on days 5-6 it received chow+HPF for 2 h; on days 7-8 it had chow ad libitum; on day 25 it was not exposed to stress;
b) the second group (R+S) had chow restricted to 66% of the normal intake for 4 days, was offered chow and HPF (2 h) on days 5-6 and only chow on days 7-8; on day 25 it […].
Body weights and food intake were recorded daily. Food intake is expressed as mean kilocalories per kilogram ingested±SEM.
Therefore, immediately after the test on day 25, vaginal smears were collected and analyzed under microscope to assess the ovarian phase, and data from rats in the estrous phase were not included in the statistical analysis. Vaginal smears were analyzed by an experienced experimenter blind to treatment conditions.
For 15 min, the container (China coffee cup) containing HPF is placed outside the cage; the container handle is hooked to the top wire wall of the cage in the hollow part where food pellets are usually offered. In these conditions, the animal is able to see the cup in which it received HPF on days 5, 6, 13, and 14 of the first two cycles, is able to see in part the HPF itself, and is able to smell its odour. In this 15-min period, the rat engages in repeated movements of the forepaws, head, and trunk aimed at obtaining the HPF, but it is not able to reach it. Rats undergo the stressful procedure between 10.00 and 12.00 am. After 15 min, the cup is placed inside the cage of the rats in the stress group (R+S), so that the HPF became accessible to the rat.
100 mg of each compound (H0816, H0860, H0847 and H0900) was accurately weighed and suspended in 13.33 ml of 0.5% carboxymethyl cellulose sodium salt (CMC, Sigma-Aldrich Cat. C4888, lot 120M0216V) solution. The lower dose solution was prepared by dilution of 30 mg/ml suspension with 0.5% CMC solution. Suspensions were prepared freshly on test day. Vehicle was composed by a solution of 0.5% carboxymethyl cellulose sodium salt and was prepared by dissolving 1 g of CMC in 200 ml of distilled water. 180 mg of Topiramate was accurately weighed and suspended in 12 ml of 0.5% CMC solution. Compounds (vehicle and active principles) were administered by gavage in a volume of 4 ml/kg of body weight one hour before access to HPF.
All data are expressed as the mean±s.e.m. and each value reflects the mean number of animals per group as described in the legends. For data evaluation, the analysis of variance (ANOVA) was used followed by post-hoc (Bonferroni's) test when appropriate. Statistical significance was set at P<0.05. The Software used for the Graphs was Origin 7.0. […]

[10] = PO 10 mg/kg + ANA (ANAM) 30 mg/kg mice
[11] = first test, acute administration (compounds 3 and 30 mg/kg, Topiramate 60 mg/kg)
[12] = second test, H0816 3, 10 and 30 mg/kg, Topiramate 60 mg/kg

T1 sequence (Q92847 whole entry): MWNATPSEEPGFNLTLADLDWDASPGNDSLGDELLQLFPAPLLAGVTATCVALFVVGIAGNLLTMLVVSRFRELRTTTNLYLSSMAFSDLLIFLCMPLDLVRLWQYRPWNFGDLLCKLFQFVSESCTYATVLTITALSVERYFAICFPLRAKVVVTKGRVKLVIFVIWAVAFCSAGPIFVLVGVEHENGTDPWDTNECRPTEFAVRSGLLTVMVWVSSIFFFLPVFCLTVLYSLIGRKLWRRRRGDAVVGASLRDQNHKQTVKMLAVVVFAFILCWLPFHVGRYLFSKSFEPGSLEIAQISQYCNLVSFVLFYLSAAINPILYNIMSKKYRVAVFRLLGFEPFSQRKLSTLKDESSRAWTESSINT

Compound	Metabolic Stability M [2]	EC50 [3]	Metabolic Stability R [5]	Metabolic Stability H [6]	IC50 [7]	other results
C[C@H](NC(=O)N(C)C1CCN(C)C1)c1ccc(-c2cnccn2)c(Cl)c1Cl (mixture of isomers) [Compound H0837, 3-((S)-1-(2,3-dichloro-4-(pyrazin-2-yl)phenyl)ethyl)-1-methyl-1-(1-methylpyrrolidin-3-yl)urea]	High H High M High R High D	> 30 µM	High H High M High R High D	High H High M High R High D	0.002 µM	Metabolic Stability D [1]: High H High M High R High D; Mouse Food Intake % increase ([4]; 2 h, 30 mg/kg PO mice): 180%; Mouse Food Intake, result in words [4, 10]: NSE
CC(NC(=O)N(C)C1CCN(C)CC1)c1ccc(C#Cc2cscn2)c(Cl)c1Cl (stereo not drawn) [Compound H0751, 3-(1-(2,3-dichloro-4-(thiazol-4-ylethynyl)phenyl)ethyl)-1-methyl-1-(1-methylpiperidin-4-yl)urea]	High H High M	0.062 µM		High H High M	0.006 µM	Food intake in rat, result in words ([8]; PO + ANA): no effect; Emax [3]: 1267; inhibition in vivo at 10 mg/kg [4]: 91%; Mouse Food Intake, result in words ([4]; PO, dose not given): no effect
CC(NC(=O)N(C)C1CCN(C)CC1)c1ccc(C#Cc2ccco2)c(Cl)c1Cl (stereo not drawn) [Compound H0762, 3-(1-(2,3-dichloro-4-(furan-2-ylethynyl)phenyl)ethyl)-1-methyl-1-(1-methylpiperidin-4-yl)urea]	High H High M	> 30 µM		High H High M	0.005 µM	Food intake in rat, result in words ([8]; PO): NSEt; inhibition in vivo at 10 mg/kg [4]: 93%; Mouse Food Intake, result in words ([4]; PO, dose not given): NSEt
CC(NC(=O)N(C)C1CCN(C)CC1)c1ccc(/C=C/c2cccs2)c(Cl)c1Cl (stereo not drawn) [Compound H0767, (E)-3-(1-(2,3-dichloro-4-(2-(thiophen-2-yl)vinyl)phenyl)ethyl)-1-methyl-1-(1-methylpiperidin-4-yl)urea]	High H High M	> 30 µM		High H High M	0.037 µM	inhibition in vivo at 10 mg/kg [4]: 88%; Mouse Food Intake, result in words ([4]; PO, dose not given): NSE
CC(NC(=O)N(C)[C@@H]1CCN(C)CC1(C)C)c1ccc(-c2cnccn2)c(Cl)c1Cl (stereo partly drawn) [Compound H0824, 2-(1-(2,3-dichloro-4-(pyrazin-2-yl)phenyl)ethyl)-1-methyl-1-((R)-1,3,3-trimethylpiperidin-4-yl)urea]	Medium	> 30 µM		High	0.003 µM	Mouse Food Intake, result in words ([4]; PO 30 mg/kg + ANA mice): PO 30 mg/kg + ANA mice: NSE
CC(NC(=O)N(Cc1ccccc1)C1CCN(C)CC1)c1ccc(-c2cnccn2)c(Cl)c1Cl (stereo not drawn) [Compound H0825, 1-benzyl-3-(1-(2,3-dichloro-4-(pyrazin-2-yl)phenyl)ethyl)-1-(1-methylpiperidin-4-yl)urea]	Medium H Medium M Medium R	> 30 µM	Medium H Medium M Medium R	Medium H Medium M Medium R	0.01 µM	
CCN(C(=O)NC(C)c1ccc(-c2cnccn2)c(Cl)c1Cl)C1CCN(C)CC1 (stereo not drawn) [Compound H0826, 3-(1-(2,3-dichloro-4-(pyrazin-2-yl)phenyl)ethyl)-1-ethyl-1-(1-methylpiperidin-4-yl)urea]	High	> 30 µM	High	High	0.005 µM	Metabolic Stability D [1]: Medium
CCC(NC(=O)N(C)C1CCN(C)CC1)c1ccc(-c2cnccn2)c(Cl)c1Cl (stereo not drawn) [Compound H0829, 3-(1-(2,3-dichloro-4-(pyrazin-2-yl)phenyl)propyl)-1-methyl-1-(1-methylpiperidin-4-yl)urea]	High H High M	> 30 µM		High H High M	0.003 µM	Mouse Food Intake, result in words [4, 10]: PO 10 mg/kg + ANA 30 mg/kg mice: NSE
CN1CCC(N(C)C(=O)NC(c2ccc(-c3cnccn3)c(Cl)c2Cl)C(F)(F)F)CC1 (stereo not drawn) [Compound H0830, 3-(1-(2,3-dichloro-4-(pyrazin-2-yl)phenyl)-2,2,2-trifluoroethyl)-1-methyl-1-(1-methylpiperidin-4-yl)urea]	High	> 30 µM	High	High	0.003 µM	Metabolic Stability D [1]: Medium
C[C@@H](NC(=O)N(C)C1CCN(C)CC1)c1ccc(-c2cncc(F)n2)c(Cl)c1Cl [Compound H0848, (R)-3-(1-(2,3-dichloro-4-(6-fluoropyrazin-2-yl)phenyl)ethyl)-1-methyl-1-(1-methylpiperidin-4-yl)urea]	High	> 30 µM		Medium	0.432 µM	Mouse Food Intake, result in words [4, 10]: PO 10 mg/kg + ANA 30 mg/kg mice: NSE
CN1CC[C@@H](N(C)C(=O)NC(c2ccc(-c3cnccn3)c(Cl)c2Cl)C(F)(F)F)C(C)(C)C1 (stereo partly drawn) [Compound H0865, 3-(1-(2,3-dichloro-4-(pyrazin-2-yl)phenyl)-2,2,2-trifluoroethyl)-1-methyl-1-((R)-1,3,3-trimethylpiperidin-4-yl)urea]	Low	> 30 µM	Medium	Medium	0.006 µM	
CC1(C)O[C@@H]2[C@@H](CO[C@@]3(COS(N)(=O)=O)OC(C)(C)O[C@@H]23)O1 [Topiramate, reference compound]						HPF intake (binge eating) in R+S rats ([9]; first test, vs R+S vehicle, 60 mg/kg): confirmed its inhibitory effect; also recorded: statistically significant at all time points; also recorded: completely abolished BE episode; 2-h chow food intake during binge eating test [9, 11]: did not modify 2-h chow intake; 24-h chow food intake after binge eating test [9, 11]: did not modify 24-h chow intake; HPF intake (binge eating) in R+S rats ([9]; second test): statistically significant at all time points; 2-h chow intake [9, 12]: did not modify; 24-h chow intake [9, 12]: did not modify
